These results are taken from US6875746B1, “Anticancer anthraquinones and method of use thereof” (Board of Trustees of Michigan State University, priority 2002, dated 2005).

One experiment deals with MCF-7 (breast). The experiment in a line: cancer cell growth inhibition assay (sulforhodamine B), MCF-7. Type of experiment: cell-based. The following applies: Homo sapiens, MCF7, read-out: GI50 ± SE, MCF-7 (breast). The method, then:
(§1) The compounds were tested for their activity against breast, central nervous system (CNS), colon, and lung human tumor cell lines. The breast (MCF-7), CNS(SF-268), and lung (NCI-H460) cultures were purchased from the National Cancer Institute (Bethesda, Md.) while the colon culture (HCT-116) was purchased from the American Type Culture Collection (Arlington, Va.). All cell lines were maintained in a humidified chamber at 37° C. with 5% CO2 in RPMI-1640 medium supplemented with 10% fetal bovine serum, penicillin (1 unit/100 mL), and streptomycin (1 μg/100 mL). All cell lines were sub-cultured according to their individual growth profiles in order to ensure exponential growth throughout the experiments. Breast (10,000 cells/well), CNS (15,000 cells/well), colon (7,500 cells/well), and lung (7,500 cells/well) cancer cells were aliquoted (100 μL) into 96-well plates and allowed to grow for 24 hours before the addition of the test compounds to the media. The compounds were dissolved in DMSO and diluted in sterile media as necessary to obtain the appropriate concentration. […] Test compounds, standards, and DMSO control were incubated for 48 hours, after which the assay was terminated via the addition of cold trichloroacetic acid. The plates were incubated for one hour at 4° C., washed with deionized water (five times), and air-dried. A 100 μL aliquot of 0.4% sulforhodamine B stain in 1% acetic acid was added to each well and the plates were incubated for 30 minutes at room temperature. Following incubation, the wells were rinsed with 1% acetic acid (five times) and the bound stain was dissolved in 100 μL of 10 mM TRIZMA base. The plates were shaken for five minutes on a gyrorotary shaker after which the absorbance of each well was recorded with an automated microplate reader (model EL800, Bio-Tek Instruments, Inc., Winooski, Vt.) at 515 nm. Three independent experiments were performed in triplicate using at least five drug concentrations inclusive of the 50% growth inhibitory concentration. Results are expressed as the concentration of compound required to inhibit cellular growth 50% (GI50) ±SE.

The test system of the next experiment is SF-268 (CNS). The experiment in a line: cancer cell growth inhibition assay (sulforhodamine B), SF-268. Type of experiment: cell-based. The following applies: Homo sapiens, read-out: GI50 ± SE, SF-268 (CNS). The method, then:
as §1

In a further experiment the test system is HCT-116 (colon). The experiment in a line: cancer cell growth inhibition assay (sulforhodamine B), HCT-116. Type of experiment: cell-based. To be noted: Homo sapiens, read-out: GI50 ± SE, HCT-116 (colon). On the procedure: as §1
The test system of another experiment is NCI-H460 (lung). The experiment in a line: cancer cell growth inhibition assay (sulforhodamine B), NCI-H460. The following applies: Homo sapiens, read-out: GI50 ± SE, NCI-H460 (lung). Type of experiment: cell-based. The method, then: as §1
Experiment [1] relates to breast (MCF-7), CNS (SF-268), colon (HCT-116) and lung (NCI-H460) human tumor cell lines. The experiment in a line: cancer cell growth inhibition assay, statements on the four cell lines together. Type of experiment: cell-based. To be noted: MCF-7, SF-268, HCT-116, NCI-H460. The method, then: as §1, with “Results are expressed as the concentration of compound required to inhibit cellular growth 50% (GI50) ±SE.” left out

For experiment [2], the system named is HCT 116 human colon carcinoma cells. The experiment in a line: MTT cell viability assay, HCT 116. The following applies: at GI50 concentration, 48 hours, FIG. 4. It counts as cell-based. On the procedure: (§2) In this example, compounds 1, 1a, 2, 2a, 3, 4, 6, and 8 were tested for cell toxicity using an 3-[4,5-dimethylthiazol-2-yl]-2,5-diphenyltetrazolium bromide (MTT) cell viability assay. The assay monitors the conversion of MTT to the dye, formazan, by viable cells. The formazan crystals form a precipitate which is dissolved in DMSO and analyzed by spectroscopy. MTT is not converted to formazan by dead cells. Therefore, the amount of dye detected is inversely related to the toxicity of the compound being tested.
(§3) The cancer cells used were HCT 116 (colon carcinoma, human, batch # F-11276), SF-268 (CNS, glioblastoma, human, 0503138), NCI-H460 (lung, large cell carcinoma, human, 503473), and MCF-7 (breast, mammary adenocarcinoma, human, 0501975) were procured from NCI, NIH.
(§4) The cells were grown in RPMI 1640 media supplemented with 10% fetal bovine serum and maintained at 37° C. in a humidified atmosphere of 5% CO2. Cells were seeded in 96 well plates at a density of 2000 cells per well. […] To each well, 200 μL of DMSO was added immediately, shaken for 5 min, and optical density of each well was recorded at 570 nm using Universal Microplate Reader. […]
(§5) The average optical densities of three wells for each sample tested and of DMSO control were calculated. The average optical densities of samples and of DMSO control from the replicates were then calculated. […]
(Formazan colour is commonly taken as a measure of viable cells.)

Experiment [3] deals with SF-268 human CNS glioblastoma cells. The experiment in a line: MTT cell viability assay, SF-268. Type of experiment: cell-based. To be noted: at GI50 concentration, 48 hours, FIG. 5; compared with 8, 4, 6 and mixture 1a and 2a. The method, then:
as §2, §3, §4, §5

Experiment [4] has as its system lung (A-549) tumor cell line. To be noted: Li and McLaughlin, J. Nat. Prod. 52: 660-662 (1989); cited from earlier work.
In experiment [5] the test system is nasal (KBMRI) tumor cell line. The following applies: Li and McLaughlin, J. Nat. Prod. 52: 660-662 (1989); cited from earlier work.
Experiment [6] deals with colon (HT-29) tumor cell line. To be noted: Li and McLaughlin, J. Nat. Prod. 52: 660-662 (1989); cited from earlier work.
The subject of experiment [7] is NCI-H460 human large cell carcinoma cells. The experiment in a line: MTT cell viability assay, NCI-H460. It counts as cell-based. The following applies: at GI50 concentration, 48 hours, FIG. 6. The method, then: as §2, §3, §4, §5
Setting [8] is: 48 hours incubation, sulforhodamine B stain.
[9] abbreviates: adriamycin values expressed in μM (footnote a), 48 hours.

Converted amounts (≈) assume the structure as drawn. “Also recorded” adds a separate entry of the source. Read-outs that look alike come from different tables or passages of the source.

As usually defined, the GI50 is the concentration giving 50% growth inhibition. In the case of `O=C1c2cccc(O)c2C(=O)c2c1cc(CO)c(O)c2O` [compound 6, 1,2,8-trihydroxy-3-hydroxymethyl anthraquinone], the GI50 in the experiment on MCF-7 (breast) (setting [8]) was found to be 2.8 ± 0.3 µg/mL; in the experiment with SF-268 (CNS) (setting [8]) it was 3.8 ± 0.7 µg/mL; in the experiment on HCT-116 (colon) (setting [8]) it was 5 ± 0.3 µg/mL; in the experiment with NCI-H460 (lung) (setting [8]) it was 7.3 ± 0.7 µg/mL. Besides, in [1], the “activity against all four cancer cell lines (in words)” value (“activity” for short) was “consistent activity; also recorded: concentrations similar to that of compound 3”.
On to `COc1cccc2c1C(=O)c1c(O)c3c(c(O)c1C2=O)C[C@@](O)(C(=O)CO)C[C@@H]3O[C@H]1C[C@H](N)[C@H](O)[C@H](C)O1` [adriamycin, reference compound], for which the 50% growth inhibitory concentration (GI50) with MCF-7 (breast) (setting [9]) turned out to be 1.7 ± 0.2 µM; in the experiment with SF-268 (CNS) (setting [9]), 1.9 ± 0.7 µM; in the experiment on HCT-116 (colon) (setting [9]) it was 2.1 ± 0.6 µM; with NCI-H460 (lung) (setting [9]), 1.7 ± 0.4 µM.
`Cc1cc2c(c(O)c1O)C(=O)c1c(O)cccc1C2=O` [compound 3, 1,2,8-trihydroxy-3-methyl anthraquinone]: the GI50 with MCF-7 (breast) (setting [8]) turned out to be 6.5 ± 1.2 µg/mL; in the experiment with SF-268 (CNS) (setting [8]), 2.4 ± 1.8 µg/mL; in the experiment on HCT-116 (colon) (setting [8]), 6.3 ± 0.8 µg/mL; in the experiment on NCI-H460 (lung) (setting [8]), 6.3 ± 0.8 µg/mL. Besides, the “activity” value in experiment [1] was “consistent activity”. For the same compound, the “toxicity in MTT assay, HCT 116 (Colon cancer)” value in experiment [2] was “higher toxicity than the rest of the anthraquinones”. For the same compound, the “toxicity in MTT assay, SF-268 (CNS cancer)” value in experiment [3] is “higher toxicity”. Also, in experiment [4], the “ED50, lung (A-549)” value is 3.1 µg/mL (≈ 11.5 µM). Also, in experiment [5], the ED50, nasal (KBMRI) is 5.7 µg/mL (≈ 21.1 µM). The “ED50, colon (HT-29)” value in experiment [6] is 2.8 µg/mL (≈ 10.4 µM).
In the case of `O=C(O)c1cc(O)c2c(c1)C(=O)c1cccc(O)c1C2=O` [compound 8, 1,8-dihydroxy-3-carboxy anthraquinone], the 50% growth inhibitory concentration (GI50) came out at 17.2 ± 0.8 µg/mL with MCF-7 (breast) (setting [8]), 16.3 ± 1.8 µg/mL in the experiment on SF-268 (CNS) (setting [8]), 21.1 ± 1.8 µg/mL in the experiment with HCT-116 (colon) (setting [8]) and 15.4 ± 1.7 µg/mL with NCI-H460 (lung) (setting [8]). Besides, in [1], the “activity” value is “moderate activity”. Further, the “toxicity in MTT assay, NCI H460 (Lung cancer)” value in experiment [7] was “lest toxic”.
